Data published in PubChem BioAssay AID1963860 (Molecular Pharmacology Branch, DTP, NCI, 2024).
pIC50: −log10 of the molar value.

Tested on: CN0375-F725-PDC KRAS spheroid viability
Assay: Anticancer human tumor CN0375-F725-PDC patient-derived colon carcinoma cell line growth inhibition [KRAS2]
Details: spheroids with HUVEC and MSC; for pIC50: curve of first compound; for viability, T/C: stronger effect = lower value
Summary of the method: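 Combination screen of spheroid viability in tumor-cell co-cultures with endothelial (HUVEC) and mesenchymal stem cell stroma. Each agent was tested in half-log dilutions, topping at clinical Cmax or at 10 microM without a known Cmax.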

[1] = second compound 0.1 µM, first compound 0.0316 µM
[2] = second compound 0.1 µM, first compound 0.1 µM
[3] = second compound 0.1 µM, first compound 0.316 µM
[4] = second compound 0.1 µM, first compound 1 µM
[5] = second compound 0.1 µM, first compound 3.16 µM
[6] = second compound 0.1 µM, first compound 10 µM
[7] = second compound 0.316 µM, first compound 0.0316 µM
[8] = second compound 0.316 µM, first compound 0.1 µM
[9] = second compound 0.316 µM, first compound 0.316 µM
[10] = second compound 0.316 µM, first compound 1 µM
[11] = second compound 0.316 µM, first compound 3.16 µM
[12] = second compound 0.316 µM, first compound 10 µM
[13] = second compound 1 µM, first compound 0.0316 µM
[14] = second compound 1 µM, first compound 0.1 µM
[15] = second compound 1 µM, first compound 0.316 µM
[16] = second compound 1 µM, first compound 1 µM
[17] = second compound 1 µM, first compound 3.16 µM
[18] = second compound 1 µM, first compound 10 µM
[19] = second compound 3.16 µM, first compound 0.0316 µM
[20] = second compound 3.16 µM, first compound 0.1 µM
[21] = second compound 3.16 µM, first compound 0.316 µM
[22] = second compound 3.16 µM, first compound 1 µM
[23] = second compound 3.16 µM, first compound 3.16 µM
[24] = second compound 3.16 µM, first compound 10 µM
[25] = second compound 10 µM, first compound 0.0316 µM
[26] = second compound 10 µM, first compound 0.1 µM
[27] = second compound 10 µM, first compound 0.316 µM
[28] = second compound 10 µM, first compound 1 µM
[29] = second compound 10 µM, first compound 3.16 µM
[30] = second compound 10 µM, first compound 10 µM
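Also: spheroids exposed to agents for 7 days.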

Structure (SMILES) | pIC50 (second compound 0.1 µM) | pIC50 (second compound 0.316 µM) | pIC50 (second compound 1 µM) | pIC50 (second compound 3.16 µM) | pIC50 (second compound 10 µM) | viability, T/C [1] | viability, T/C [2] | viability, T/C [3] | viability, T/C [4] | viability, T/C [5] | viability, T/C [6] | viability, T/C [7] | viability, T/C [8] | viability, T/C [9] | viability, T/C [13] | viability, T/C [14] | viability, T/C [19] | viability, T/C [20] | viability, T/C [25] | viability, T/C [26] | other results
CC(C)NCC(C(=O)N1CCN(c2ncnc3c2C(C)CC3O)CC1)c1ccc(Cl)cc1 (stereo not given) + COc1cc2nc(C)nc(NC(C)c3cc(N)cc(C(F)(F)F)c3)c2cc1OC1CCOC1 | < 5.00 | < 5.00 | < 5.00 | < 5.00 | > 7.50 | 100% | 100% | 87.7% | 88.3% | 84.8% | 74.4% | 95.5% | 97.3% | 88.5% | 93.6% | 93.3% | 88.5% | 81.7% | 16.1% | 18.6% | viability, T/C [10]: 85.1%; viability, T/C [11]: 81.3%; viability, T/C [12]: 71.1%; viability, T/C [15]: 85.2%; viability, T/C [16]: 80.7%; viability, T/C [17]: 74.4%; viability, T/C [18]: 65.5%; viability, T/C [21]: 76.9%; viability, T/C [22]: 66.9%; viability, T/C [23]: 62.4%; viability, T/C [24]: 50.5%; viability, T/C [27]: 14.8%; viability, T/C [28]: 10.8%; viability, T/C [29]: 8.1%; viability, T/C [30]: 5.67%
CC1(C)CCC(CN2CCN(c3ccc(C(=O)NS(=O)(=O)c4ccc(NCC5CCOCC5)c([N+](=O)[O-])c4)c(Oc4cnc5[nH]ccc5c4)c3)CC2)=C(c2ccc(Cl)cc2)C1 + COc1cc2nc(C)nc(NC(C)c3cc(N)cc(C(F)(F)F)c3)c2cc1OC1CCOC1 | 5.20 | 5.25 | 5.55 | 5.68 | > 7.50 | 99.9% | 100% | 92.4% | 97.4% | 66.2% | 39.6% | 93.7% | 100% | 94.3% | 93.1% | 88% | 81.4% | 85.4% | 11.2% | 14.5% | viability, T/C [10]: 93.7%; viability, T/C [11]: 59.4%; viability, T/C [12]: 40.6%; viability, T/C [15]: 94.6%; viability, T/C [16]: 87.5%; viability, T/C [17]: 45.6%; viability, T/C [18]: 27.2%; viability, T/C [21]: 91.8%; viability, T/C [22]: 74.6%; viability, T/C [23]: 36%; viability, T/C [24]: 28.6%; viability, T/C [27]: 19%; viability, T/C [28]: 26.2%; viability, T/C [29]: 27.2%; viability, T/C [30]: 18.3%
Cn1ncnc1[C@H]1c2n[nH]c(=O)c3cc(F)cc(c23)N[C@@H]1c1ccc(F)cc1 + COc1cc2nc(C)nc(NC(C)c3cc(N)cc(C(F)(F)F)c3)c2cc1OC1CCOC1 | < 7.00 | < 7.00 | < 7.00 | < 7.00 | > 9.50 | 98% | 94.9% | – | – | – | – | 96.4% | 93.1% | – | 88.8% | 86.4% | 79.4% | 76.8% | 5.32% | 10.4% | viability, T/C (second compound 0.1 µM, first compound 0.000316 µM): 103%; viability, T/C (second compound 0.1 µM, first compound 0.001 µM): 98.8%; viability, T/C (second compound 0.1 µM, first compound 0.00316 µM): 96.7%; viability, T/C (second compound 0.1 µM, first compound 0.01 µM): 97.9%; viability, T/C (second compound 0.316 µM, first compound 0.000316 µM): 97.2%; viability, T/C (second compound 0.316 µM, first compound 0.001 µM): 104%; viability, T/C (second compound 0.316 µM, first compound 0.00316 µM): 94.2%; viability, T/C (second compound 0.316 µM, first compound 0.01 µM): 92.5%; viability, T/C (second compound 1 µM, first compound 0.000316 µM): 97.7%; viability, T/C (second compound 1 µM, first compound 0.001 µM): 105%; viability, T/C (second compound 1 µM, first compound 0.00316 µM): 86.9%; viability, T/C (second compound 1 µM, first compound 0.01 µM): 86.7%; viability, T/C (second compound 3.16 µM, first compound 0.000316 µM): 88.6%; viability, T/C (second compound 3.16 µM, first compound 0.001 µM): 94%; viability, T/C (second compound 3.16 µM, first compound 0.00316 µM): 84.1%; viability, T/C (second compound 3.16 µM, first compound 0.01 µM): 76.8%; viability, T/C (second compound 10 µM, first compound 0.000316 µM): 11.7%; viability, T/C (second compound 10 µM, first compound 0.001 µM): 14%; viability, T/C (second compound 10 µM, first compound 0.00316 µM): 6.8%; viability, T/C (second compound 10 µM, first compound 0.01 µM): 13.3%
